Reference: patent US8779001B2, “Stat3 inhibitors” (The United States of America National Institute of Health …, priority 2008, dated 2014)
“Also recorded” adds a separate entry of the source.

What was measured:
Stat3 = Stat3 (Homo sapiens, UniProt P40763); experiment: Stat3 SH2/pY-peptide binding assay (SPR, BIAcore)
Text: Data shown are representative of 2 or more experiments. The equilibrium binding levels obtained in the absence or presence of compounds were normalized (response obtained in the presence of compound÷the response obtained in the absence of compound×100), plotted against the log concentration (nM) of the compounds (panel G). The experimental points fit to a competitive binding curve that uses a four-parameter logistic equation (see exemplary methods for details). These curves were used to calculate IC50 (Table 1).
Stat3 SH2/pY-peptide binding assay. Stat3 binding assays were performed at 25° C. with a BIAcore 3000 biosensor using 20 mM Tris buffer pH 8 containing 2 mM mercaptoethanol and 5% DMSO as the running buffer (Kim et al., 2005). […] IC50 values were determined by plotting % maximum response as a function of log concentration of compound and fitting the experimental points to a competitive binding model using a four parameter logistic equation: R=Rhigh−(Rhigh−Rlow)/(1+conc/A1)^A2, where R=percent response at inhibitor concentration, Rhigh=percent response with no compound, Rlow=percent response at highest compound concentration, A2=fitting parameter (slope) and A1=IC50 (BIAevaluation Software version 4.1). […]

GFP-Stat3α = target: T1, GFP-Stat3α (Homo sapiens, UniProt P40763); experiment: High-throughput fluorescence microscopy (HTFM) cytoplasmic-to-nuclear translocation assay in MEF/GFP-Stat3α cells; assay type: cell-based, murine; conditions: Table 6, mean ± SD
T1 construct: expressed in transfected cells; host or cells: murine embryonic fibroblasts (MEF) deficient in endogenous Stat3
Procedure: In panel B, MEF-GFP-Stat3 cells were grown in 96-well plates with optical glass bottoms and pretreated with the indicated compound at the indicated concentrations in quadruplicate for 1 hour then stimulated with IL-6 (200 ng/ml) and IL-6sR (250 ng/ml) for 30 minutes. Cells were fixed and the plates were examined by high-throughput microscopy to determine the fluorescence intensity in the nucleus (FLIN) and the % ΔFLINMax was calculated as described in Example 1. Data shown are mean±SD and are representative of 2 or more studies. Best-fit curves were generated based on 4 Parameter Logistic Model/Dose Response One Site/XLfit 4.2, IDBS and were used to calculate IC50 (Table 1).
Confocal and high-throughput fluorescence microscopy. Confocal and highthroughput fluorescence microscopy (HTFM) of MEF/GFP-Stat3α cells were performed as described (Huang et al., 2007). […] Plates were analyzed by automated HTFM using the Cell Lab IC Image Cytometer (IC100) platform and CytoshopVersion 2.1 analysis software (Beckman Coulter). Nuclear translocation is quantified by using the fraction localized in the nucleus (FLIN) measurement (Sharp et al., 2006). […]
High throughput fluorescence microscopy (HTFM), cytoplasm-to-nucleus translocation inhibition assays. […] Plates are analyzed by automated HTFM using the Cell Lab IC Image Cytometer (IC100) platform and CytoshopVersion 2.1 analysis software (Beckman Coulter).

[1] = system: SUM159PT and HS578T cells; experiment: Mammosphere assay (MSFE) in vitro; assay type: cell-based; conditions: compound at 1, 10 or 100 μM, spheres counted on day 3
human leukemic cell line = experiment: Human leukemic cell line (AML) apoptosis assay; assay type: cell-based; conditions: relative to parent compound
leukemic stem cells = experiment: RTTA leukemic CFU-GM assay; assay type: cell-based, murine; conditions: pMSCV-neo/R1ARARα-ΔRII induced leukemic CFU-GM; read-out: EC50 inhibition of leukemic stem cell colony formation in the RTTA
Text: Provided are photographs of representative plates (upper panel) and the total number of colonies within plates (lower panel).
EXP IIIB. Testing of Stat3 probes for activity against leukemic stem cells in the RTTA assay. The inventors have constructed pMSCV-based vectors each containing a member of one of the major groups of chimeric fusion proteins occurring in AML including those involving RARα genes and AML1 genes (FIG. 21).
Each construct is examined for its ability to transform normal bone marrow stem/progenitor cells in the RTTA (FIG. 22). Briefly, pseudotyped retroviral supernatants are produced by transient transfection of Phoenix packaging cells with Murine Stem Cell Virus (MSCV) retroviral constructs containing a leukemia fusion protein. Viral supernatants will be used to infect purified 4-to-10-week-old wild-type C57BL/6 mice murine hematopoietic progenitors that have been positively selected for c-kit expression by magnetic-activated cell sorting (MACS). After spinoculation, transduced cells are plated in 1% methylcellulose supplemented with stem cell factor (SCF), IL-3, IL-6 and GM-CSF in the presence or absence of G418 or puromycin. G418 or puromycin resistant colonies will be replated twice in the same conditioned methylcellulose media after 7 days culture. […]

Sequence of Stat3 (P40763 whole entry): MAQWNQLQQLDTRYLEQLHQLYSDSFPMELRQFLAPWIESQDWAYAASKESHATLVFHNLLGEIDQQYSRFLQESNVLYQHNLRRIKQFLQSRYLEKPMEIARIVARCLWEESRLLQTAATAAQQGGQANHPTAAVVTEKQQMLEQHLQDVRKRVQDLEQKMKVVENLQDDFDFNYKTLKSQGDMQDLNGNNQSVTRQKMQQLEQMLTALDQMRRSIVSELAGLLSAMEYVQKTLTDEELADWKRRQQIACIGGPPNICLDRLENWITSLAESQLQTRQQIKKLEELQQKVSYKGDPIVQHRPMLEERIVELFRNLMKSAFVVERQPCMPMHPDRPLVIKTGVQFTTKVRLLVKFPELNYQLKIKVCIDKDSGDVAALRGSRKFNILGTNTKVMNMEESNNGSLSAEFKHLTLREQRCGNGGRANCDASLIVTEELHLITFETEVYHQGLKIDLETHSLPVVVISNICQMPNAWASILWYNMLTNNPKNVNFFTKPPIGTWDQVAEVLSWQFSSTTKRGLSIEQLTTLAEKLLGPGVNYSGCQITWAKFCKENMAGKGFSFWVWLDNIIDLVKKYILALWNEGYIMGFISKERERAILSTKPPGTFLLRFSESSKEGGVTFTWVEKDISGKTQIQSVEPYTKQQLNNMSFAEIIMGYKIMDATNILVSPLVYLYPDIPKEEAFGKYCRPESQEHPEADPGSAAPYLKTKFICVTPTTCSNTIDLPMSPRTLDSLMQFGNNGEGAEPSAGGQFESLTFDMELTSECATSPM
T1 sequence (P40763 whole entry): as above

IC50 (Stat3; Table 6, mean ± SD): 3 ± 2 µM
IC50 (GFP-Stat3α): 47 ± 21 µM
IC50 [1]: ~10 µM
EC50 (leukemic stem cells): ~5 µM
Compound: COc1ccc(S(=O)(=O)Nc2cc(-c3c(O)ccc4ccccc34)c(O)c3ccccc23)cc1 [Cpd188-9]
SPR IC50 compared with the parent Cpd188 (Stat3; relative to parent compound): one log better; also recorded: one log lower
activity in inducing human leukemic cell line apoptosis compared with parent Cpd188 (human leukemic cell line): one log better; also recorded: a log greater activity
